Values after ≈ are worked out from the molar mass of the structure shown. Values joined by “and” are separate entries in the source; they are usually repeats but may differ in a detail not shown here. Equal values may be shown once. Each block holds one compound with its values, some of them ahead of it.
Key:
Experiment in all cases: ≥ marks a high value that may be exact or a test limit, other limits are often not marked, values filed in µg/mL are converted to µM
[1] = tested on: Staphylococcus epidermidis ATCC 35984
[2] = tested on: Staphylococcus aureus ATCC 33591
[3] = tested on: Staphylococcus aureus ATCC 25923
[4] = tested on: Pseudomonas aeruginosa ATCC 27853
[5] = tested on: Pseudomonas corrugata DSM 7228
Botrytis cinerea = tested on: Botrytis cinerea
Cladosporium herbarum = tested on: Cladosporium herbarum
[6] = tested on: Pectobacterium carotovorum subsp. carotovorum DSM 30168
[7] = tested on: Xanthomonas vesicatoria DSM 50861
Alternaria alternata = tested on: Alternaria alternata
[8] = tested on: Pseudomonas syringae pv. syringae DSM 10604
[9] = tested on: Clavibacter michiganensis subsp. michiganensis DSM 46294
[10] = tested on: Pseudomonas syringae pv. tomato DC3000
[11] = tested on: Klebsiella pneumoniae ATCC 10031
[12] = tested on: Salmonella enterica subsp. enterica serovar Typhimurium ATCC 14028
[13] = tested on: Pseudomonas aeruginosa ATCC 13388
[14] = tested on: Staphylococcus aureus ATCC 6538
[15] = tested on: Escherichia coli ATCC 11219
[16] = tested on: Staphylococcus aureus ATCC BAA-39
[17] = tested on: Klebsiella pneumoniae ATCC 13883
[18] = tested on: Salmonella enterica subsp. enterica serovar Enteritidis ATCC 13076
[19] = tested on: Staphylococcus aureus ATCC 43300
[20] = tested on: Escherichia coli ATCC 25922
[21] = tested on: Listeria monocytogenes ATCC 19115
[22] = tested on: Pseudomonas syringae pv. actinidiae Psa3700.1.1
[23] = tested on: Erwinia amylovora PMV 6076
[24] = tested on: Pseudomonas syringae pv. syringae EPS 94
[25] = tested on: Xanthomonas fragariae Xf349-9A
[26] = tested on: Xanthomonas campestris pv. Vesicatoria 2133-2
[27] = tested on: Xanthomonas arboricola pv. pruni CFBP 5563
Escherichia coli JM109 = tested on: Escherichia coli JM109
[28] = tested on: Pseudomonas putida GPp104
[29] = tested on: Escherichia coli BL21(DE3)
Cupriavidus necator H16 = tested on: Cupriavidus necator H16
Staphylococcus aureus = tested on: Staphylococcus aureus
Bacillus megaterium = tested on: Bacillus megaterium

Structure (SMILES): CC[C@H](C)[C@H](NC(=O)CN)C(=O)NCC(=O)N[C@@H](CCCCN)C(=O)N[C@@H](Cc1ccccc1)C(=O)N[C@@H](CC(C)C)C(=O)N[C@@H](CCCCN)C(=O)N[C@@H](CCCCN)C(=O)N[C@@H](C)C(=O)N[C@@H](CCCCN)C(=O)N[C@@H](CCCCN)C(=O)N[C@@H](Cc1ccccc1)C(N)=O [GIGKFLKKAKKF]
- MIC [1]: ≥ 33.2 µM
- MIC [2]: ≥ 375 µM
- MIC [3]: 375 µM (≈ 512 µg/mL)
- MIC [4]: 4.15 µM (≈ 5.65 µg/mL)

Structure (SMILES): CC[C@H](C)[C@H](NC(=O)CNC(=O)[C@@H](N)Cc1c[nH]c2ccccc12)C(=O)N[C@@H](CCCN=C(N)N)C(=O)N[C@@H](CCCN=C(N)N)C(=O)N[C@H](C(=O)N[C@@H](CC(C)C)C(=O)N[C@@H](CCCCN)C(=O)N[C@@H](Cc1ccc(O)cc1)C(=O)NCC(=O)N[C@@H](CCCCN)C(=O)N[C@@H](CCCN=C(N)N)C(=O)N[C@@H](CO)C(=O)O)[C@@H](C)CC [WGIRRILKYGKRS]
- MIC [11]: 20 µM (≈ 32.7 µg/mL)
- MIC [12]: 10 µM (≈ 16.3 µg/mL)
- MIC [13]: 4 µM (≈ 6.53 µg/mL)
- MIC [14]: 4 µM (≈ 6.53 µg/mL)
- MIC [15]: 10 µM (≈ 16.3 µg/mL)

Structure (SMILES): CC[C@H](C)[C@H](NC(=O)[C@H](Cc1ccc(O)cc1)NC(=O)[C@@H](NC(=O)[C@@H]1CCCN1C(=O)[C@H](CCCN=C(N)N)NC(=O)[C@@H]1CCCN1C(=O)[C@H](CC(C)C)NC(=O)[C@@H](N)CCCN=C(N)N)C(C)C)C(=O)N1CCC[C@H]1C(=O)N[C@@H](CCC(N)=O)C(=O)N1CCC[C@H]1C(=O)N[C@@H](CCCN=C(N)N)C(=O)N1CCC[C@H]1C(=O)N1CCC[C@H]1C(=O)N[C@@H](Cc1cnc[nH]1)C(=O)N1CCC[C@H]1C(=O)N[C@@H](CCCN=C(N)N)C(=O)N[C@@H](CC(C)C)C(=O)O [RLPRPVYIPQPRPPHPRL]
- MIC (Escherichia coli JM109): 25 µM (≈ 54.7 µg/mL)
- MIC [28]: 12.5 µM (≈ 27.4 µg/mL)
- MIC [29]: 1.25 µM (≈ 2.74 µg/mL)
- MIC (Cupriavidus necator H16): ≥ 50 µM

Structure (SMILES): CC[C@H](C)[C@H](NC(=O)CN)C(=O)N[C@@H](Cc1cnc[nH]1)C(=O)N[C@@H](CC(=O)O)C(=O)N[C@H](C(=O)N[C@@H](C)C(=O)N[C@@H](CCCCN)C(=O)N[C@@H](Cc1ccc(O)cc1)C(=O)NCC(=O)N[C@@H](CCCCN)C(=O)N1CCC[C@H]1C(=O)N[C@@H](CO)C(N)=O)[C@@H](C)CC [GIHDIAKYGKPS]
- MIC [11]: 20 µM (≈ 25.7 µg/mL)
- MIC [12]: > 50 µM
- MIC [13]: ≥ 50 µM
- MIC [14]: 5 µM (≈ 6.42 µg/mL)
- MIC [15]: ≥ 50 µM

Structure (SMILES): CC[C@H](C)[C@H](NC(=O)[C@H](Cc1ccc(O)cc1)NC(=O)[C@@H](NC(=O)[C@@H]1CCCN1C(=O)[C@H](CCCN=C(N)N)NC(=O)[C@@H](NC(=O)CNC(=O)[C@@H](N)CCCN=C(N)N)C(C)C)C(C)C)C(=O)N1CCC[C@H]1C(=O)N[C@@H](CCC(N)=O)C(=O)N1CCC[C@H]1C(=O)N[C@@H](CCCN=C(N)N)C(=O)N1CCC[C@H]1C(=O)N1CCC[C@H]1C(=O)N[C@@H](Cc1cnc[nH]1)C(=O)N1CCC[C@H]1C(=O)N[C@@H](CCCN=C(N)N)C(=O)N[C@@H](CC(C)C)C(=O)O [RGVRPVYIPQPRPPHPRL]
- MIC (Escherichia coli JM109): 6.25 µM (≈ 13.3 µg/mL)
- MIC [28]: 6.25 µM (≈ 13.3 µg/mL)
- MIC [29]: 0.313 µM (≈ 0.668 µg/mL)
- MIC (Cupriavidus necator H16): 25 µM (≈ 53.4 µg/mL)

Results, then the compound that gave them:

- MIC [5]: 17.2 µM (≈ 40 µg/mL)
- MIC (Botrytis cinerea): ≥ 43.1 µM
- MIC (Cladosporium herbarum): 17.2 µM (≈ 40 µg/mL)
- MIC [6]: 17.2 µM (≈ 40 µg/mL)
- MIC [7]: 8.62 µM (≈ 20 µg/mL)
- MIC (Alternaria alternata): ≥ 43.1 µM
- MIC [8]: 17.2 µM (≈ 40 µg/mL)
- MIC [9]: 1.08 µM (≈ 2.5 µg/mL)
- MIC [10]: 17.2 µM (≈ 40 µg/mL)
Structure (SMILES): CC[C@H](C)[C@H](NC(=O)[C@H](CC(C)C)NC(=O)[C@H](CCCCN)NC(=O)[C@H](CCCN=C(N)N)NC(=O)[C@@H](N)CCCCN)C(=O)N[C@@H](Cc1ccccc1)C(=O)N[C@@H](CC(C)C)C(=O)N[C@@H](C)C(=O)N[C@@H](C)C(=O)N[C@@H](Cc1ccccc1)C(=O)N[C@@H](CC(C)C)C(=O)N[C@@H](C)C(=O)N[C@@H](C)C(=O)N[C@@H](CC(C)C)C(=O)N[C@@H](C)C(=O)N[C@@H](CC(C)C)C(=O)N[C@@H](Cc1ccccc1)C(=O)N[C@@H](CCCCN)C(=O)N[C@@H](CCCCN)C(=O)N[C@@H](CCCN=C(N)N)C(N)=O [KRKLIFLAAFLAALALFKKR]

- MIC [16]: 5.66 µM and 16 µM
- MIC [17]: 8 µM and 16 µM
- MIC [3]: 8 µM and 16 µM
- MIC [18]: 4 µM and 5.66 µM
- MIC [19]: 5.66 µM and 16 µM
- MIC [20]: 16 µM (≈ 30.4 µg/mL)
- MIC [21]: 5.66 µM and 11.3 µM
Structure (SMILES): CC[C@H](C)[C@H](NC(=O)[C@H](CCCCN)NC(=O)[C@H](CCCN=C(N)N)NC(=O)[C@H](CC(C)C)NC(=O)[C@H](Cc1ccccc1)NC(=O)[C@H](CCCN=C(N)N)NC(=O)CNC(=O)[C@H](Cc1ccccc1)NC(=O)[C@H](CCCN=C(N)N)NC(=O)CNC(=O)[C@H](CCCN=C(N)N)NC(=O)[C@H](CCC(N)=O)NC(=O)[C@@H](NC(=O)[C@@H](N)CC(C)C)C(C)C)C(=O)N[C@@H](CCCN=C(N)N)C(=O)O [LVQRGRFGRFLRKIR]

- MIC [22]: ≥ 50 µM
- MIC [23]: ≥ 50 µM
- MIC [24]: ≥ 50 µM
- MIC [25]: ≥ 50 µM
- MIC [26]: ≥ 50 µM
- MIC [27]: ≥ 50 µM
Structure (SMILES): CC(C)C[C@H](NC(=O)[C@H](CCCN=C(N)N)NC(=O)[C@H](CC(N)=O)NC(=O)[C@H](CCCCN)NC(=O)[C@H](CCC(=O)O)NC(=O)[C@H](CCC(=O)O)NC(=O)[C@H](CCC(=O)O)NC(=O)[C@@H](NC(=O)[C@H](CC(C)C)NC(=O)[C@H](CCCCN)NC(=O)[C@@H](NC(=O)[C@H](CCCCN)NC(=O)[C@H](CCCCN)NC(=O)[C@@H](N)[C@@H](C)O)[C@@H](C)O)[C@@H](C)O)C(N)=O [TKKTKLTEEEKNRL]

- MIC [16]: 4 µM (≈ 8.13 µg/mL)
- MIC [17]: 4 µM (≈ 8.13 µg/mL)
- MIC [3]: 2.83 µM and 4 µM
- MIC [18]: 4 µM (≈ 8.13 µg/mL)
- MIC [19]: 2 µM and 4 µM
- MIC [20]: 5.66 µM and 8 µM
- MIC [21]: 2.83 µM and 4 µM
Structure (SMILES): CC[C@H](C)[C@H](NC(=O)[C@@H](NC(=O)[C@@H](NC(=O)[C@@H](NC(=O)[C@@H](NC(=O)[C@H](CCCCN)NC(=O)[C@@H]1CCCN1C(=O)[C@H](CCCN=C(N)N)NC(=O)[C@H](Cc1ccccc1)NC(=O)[C@H](CCCN=C(N)N)NC(=O)[C@@H](N)CCCN=C(N)N)C(C)C)[C@@H](C)O)[C@@H](C)CC)[C@@H](C)O)C(=O)N[C@@H](CCC(N)=O)C(=O)NCC(=O)N[C@@H](CO)C(=O)N[C@@H](C)C(=O)N[C@@H](CCCN=C(N)N)C(=O)N[C@@H](Cc1ccccc1)C(=O)O [RRFRPKVTITIQGSARF]

- MIC (Staphylococcus aureus): 12.5 µM (≈ 25.5 µg/mL)
- MIC (Bacillus megaterium): 3.1 µM (≈ 6.33 µg/mL)
Structure (SMILES): CC[C@H](C)[C@H](NC(=O)[C@H](Cc1cnc[nH]1)NC(=O)[C@@H]1CCCN1C(=O)[C@@H](NC(=O)[C@H](CC(C)C)NC(=O)[C@H](CO)NC(=O)[C@H](CC(C)C)NC(=O)[C@@H](N)Cc1ccccc1)[C@@H](C)CC)C(=O)N[C@H](C(=O)N[C@@H](CO)C(=O)NCC(=O)N[C@H](C(=O)N[C@@H](C)C(=O)N[C@@H](C)C(=O)N[C@@H](CC(C)C)C(=O)N[C@@H](C)C(=O)N[C@@H](CCCCN)C(=O)N[C@@H](Cc1cnc[nH]1)C(=O)N[C@@H](CC(C)C)C(=O)NCC(=O)O)C(C)C)C(C)C [FLSLIPHIVSGVAALAKHLG]

From DBAASP
